Data reported in ChEMBL document CHEMBL1201862, “PubChem BioAssay data set” (2004).
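All cell lines were grown in 96-well plates and treated with compound for 48 hours. Here, GI50 denotes the concentration required for 50% inhibition of growth.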 Activity calls are given as the source filed them. No stated cut-off is given here; in the data, active = GI50 up to about 1.1 µM and inactive = higher.

Columns and labels:
Assay in all cases: DTP human tumour cell line panel, 48 h
[1] = system: TK-10
[2] = system: HOP-92
[3] = system: A498
[4] = system: SF-268
[5] = system: OVCAR-3
[6] = system: SNB-19
[7] = system: IGROV-1
[8] = system: M19-MEL
[9] = system: HCT-15
[10] = system: KM12
[11] = system: Malme-3M
[12] = system: EKVX
[13] = system: UACC-257
[14] = system: SW-620
[15] = system: SK-OV-3
[16] = system: NCI-H460
[17] = system: SF-295
[18] = system: SK-MEL-5
[19] = system: CAKI-1

Row | Structure (SMILES) | GI50 [1] | GI50 [2] | GI50 [3] | GI50 [4] | GI50 [5] | GI50 [6] | GI50 [7] | GI50 [8] | GI50 [9] [µM] | GI50 [10] | GI50 [11] | GI50 [12] | GI50 [13] | GI50 [14] | GI50 [15] | GI50 [16] | GI50 [17] | GI50 [18] | GI50 [19]
1 | NN=C1/C(=C\c2ccccc2)CCC/C1=C/c1ccccc1 | > 100 µM (inactive) | 25.7 µM (inactive) | 29.6 µM (inactive) | 34.3 µM (inactive) | 32.3 µM (inactive) | 44 µM (inactive) | 39.1 µM (inactive) | 31.6 µM (inactive) | 36.7 | 34.1 µM (inactive) | 22.4 µM (inactive) | 44.7 µM (inactive) | 30.8 µM (inactive) | 42.5 µM (inactive) | > 100 µM (inactive) | 32 µM (inactive) | 45.3 µM (inactive) |  | 
2 | O=S(=O)(NCn1ccc2ccccc21)c1ccccc1 | > 100 µM (inactive) | > 100 µM (inactive) | > 100 µM (inactive) | > 57.8 µM (inactive) | > 100 µM (inactive) | > 31.6 µM (inactive) | > 100 µM (inactive) | > 100 µM (inactive) | > 57.7 | > 60.7 µM (inactive) | > 100 µM (inactive) | > 100 µM (inactive) | > 88.7 µM (inactive) | 38.4 µM (inactive) | > 100 µM (inactive) | > 100 µM (inactive) | > 100 µM (inactive) | > 100 µM (inactive) | 
3 | COc1c(NC(C)=O)cc(C)cc1NC(C)=O | > 100 µM (inactive) | > 100 µM (inactive) | > 100 µM (inactive) | > 100 µM (inactive) | > 100 µM (inactive) |  |  | > 100 µM (inactive) | > 100 | > 100 µM (inactive) |  | > 100 µM (inactive) | > 100 µM (inactive) | > 100 µM (inactive) | > 100 µM (inactive) | > 100 µM (inactive) | > 100 µM (inactive) | > 100 µM (inactive) | > 100 µM (inactive)
4 | C[C@H]1COC2(c3ccccc3)CCC(=O)N12 (stereo not given in full) | > 100 µM (inactive) | > 100 µM (inactive) | > 100 µM (inactive) | > 100 µM (inactive) | > 100 µM (inactive) | > 100 µM (inactive) | > 100 µM (inactive) | > 100 µM (inactive) | > 100 | > 100 µM (inactive) | > 100 µM (inactive) | > 100 µM (inactive) | > 100 µM (inactive) | > 100 µM (inactive) |  | > 100 µM (inactive) | > 100 µM (inactive) | > 100 µM (inactive) | > 100 µM (inactive)
5 | COc1ccc(/C=C2\CCCC(C(NO)c3ccc(OC)cc3)C2=NO)cc1 (stereo not given) | 66.1 µM (inactive) |  | 36.1 µM (inactive) | 68.2 µM (inactive) | 47.3 µM (inactive) | 61.4 µM (inactive) | 33.9 µM (inactive) | 46.3 µM (inactive) | 35.6 | 89.5 µM (inactive) | 34.1 µM (inactive) | 48.8 µM (inactive) | 38.1 µM (inactive) | 44.3 µM (inactive) | > 100 µM (inactive) | 59.8 µM (inactive) | 55.6 µM (inactive) | 20 µM (inactive) | 49 µM (inactive)
6 | Cc1ccc2nc3cc(C)c(=O)cc-3sc2c1 | > 100 µM (inactive) | > 100 µM (inactive) |  | 81.1 µM (inactive) | > 100 µM (inactive) | > 100 µM (inactive) | > 100 µM (inactive) | 16.1 µM (inactive) | 52.8 | 54.1 µM (inactive) | > 100 µM (inactive) | > 100 µM (inactive) | 54.6 µM (inactive) | > 100 µM (inactive) | > 100 µM (inactive) | > 100 µM (inactive) | 94.2 µM (inactive) | 44.9 µM (inactive) | 39.7 µM (inactive)
